Reference: patent US12503704B2, “Modified cell” (Oxford University Innovation Limited, priority 2019, dated 2025)
Where two headings read alike, the source gives them in different places.

How the values were obtained:
[1] = system: ICeuI− Glycolysis+ strain; assay: D-cycloserine treatment, plate counts over time; assay type: cell-based, Escherichia coli; settings: 200 μg/mL D-cycloserine at time 0 and 1.5 hours
parent cells = assay: Screen of D-cycloserine concentrations to maintain SimCell purity; assay type: cell-based, Escherichia coli; settings: little to no increase in OD
Procedure: A protocol for minimal cell purification from Heinemann and Ankenbauer was adapted for SimCell purification (12)^a. Mixed cultures of SimCells and parent cells were treated with D-cycloserine to kill actively dividing cells. D-cycloserine was added at a concentration of 200 μg/mL and cells were left to incubate at 37° C. and shake for 1.5 hours before D-cycloserine was added again at the same concentration. After 24 hours of treatment with D-cycloserine, cells were spun down and washed twice with phosphate buffered saline (PBS). When pure SimCell cultures were induced for protein expression, 25 μg/mL D-cycloserine was added every two days to prevent parent cell growth but allow SimCells to be functional.
Further optimization of D-cycloserine concentration ensured pure SimCell populations in the following experiments, and excluded the contribution made by remaining parent cells in SimCell populations. After a screen of D-cycloserine concentrations, 25 μg/mL was determined to be the point where parent cells were killed in the culture evidenced by little to no increase in OD (Table S3) but also permitted protein production or other activities in SimCells. By using D-cycloserine which targets active, parent cells, we were able to distinguish activity from SimCells on a larger, culture-level scale for further characterization.

[2] = system: ICeuI− Glycolysis− strain; assay: D-cycloserine treatment, plate counts over time; assay type: cell-based, Escherichia coli; settings: 200 μg/mL D-cycloserine at time 0 and 1.5 hours
[3] = system: ICeuI+ Glycolysis+ strain; assay: D-cycloserine treatment, plate counts over time; assay type: cell-based, Escherichia coli; settings: 200 μg/mL D-cycloserine at time 0 and 1.5 hours
[4] = system: ICeuI+ Glycolysis− strain; assay: D-cycloserine treatment, plate counts over time; assay type: cell-based, Escherichia coli; settings: 200 μg/mL D-cycloserine at time 0 and 1.5 hours
SalAR circuit = assay: GFP output after induction of the SalAR circuit (pSalAR-GFP) in parent cells; assay type: cell-based, Escherichia coli
Source text: FIGS. 33A-33E: The levels of GFP over time after induction of the SalAR circuit can act as an indicator for the kinetics of catechol production. Production of GFP by parent cells with the pSalAR-GFP plasmid and FIG. 33A without an additional glycolysis pathway (pSEVA224) or FIG. 33B with an additional glycolysis pathway (pSEVA224-GB3). […] FIG. 33C Ratio of fluorescent output of induced cells versus cells not induced with SA. In parent cells GFP production increased by about 1.5 and 2-fold when induced with 100 μM and 500 μM SA, respectively. FIG. 33D Catechol production by E. coli. LB agar plates with aspirin and salicylic acid have no color (top), while catechol is distinctly brown (bottom). When E. coli with pSalAR-GFP was plated on agar with inducers 2 mM Aspirin (bottom middle) or 2 mM salicylic acid (bottom right) catechol was produced and diffused out of the cell, tinting the agar brown. […] FIG. 33E The color of the supernatant darkens as inducer concentration increases, indicating production and export of catechol. SA: salicylic acid, ASA: acetylsalicylic acid (aspirin).

[5] = system: fibroblasts; A549, Mo59K, and RD cancer cells
[6] = system: fibroblasts; A549, Mo59K, and RD cancer cells; assay: Cell viability assay with supplements, all mammalian cell lines; settings: PBS control
[7] = system: glioblastoma (Mo59K) cancer cell line; assay: Cell viability assay (crystal violet); assay type: cell-based; settings: catechol at concentrations as low as 100 μM, 24 hours
[8] = system: A549 lung cancer cell line; assay: Cell viability assay (crystal violet); assay type: cell-based; settings: catechol at concentrations as low as 100 μM, 24 hours
[9] = system: rhabdomyosarcoma (RD) cancer cell line; assay: Cell viability assay (crystal violet); assay type: cell-based; settings: catechol at concentrations as low as 100 μM, 24 hours
[10] = system: fibroblast control cell line (Fibroblasts); assay: Cell viability assay (crystal violet); assay type: cell-based; settings: catechol at concentrations as low as 100 μM, 24 hours

In the case of `N[C@@H]1CONC1=O` [D-cycloserine], the CFU/mL ([1]; time 0 hr) is reported as 1.0 × 10^9 CFU/mL, the CFU/mL ([1]; time 1.5 hr) is reported as 6.9 × 10^8 CFU/mL and the CFU/mL ([1]; time 5 hr) is reported as 4 × 10^7 CFU/mL. The CFU/mL ([1]; time 24 hr) was 8.3 × 10^4 CFU/mL, the “D-cycloserine concentration at which parent cells were killed while SimCell activity was permitted” value (parent cells) was 25 µg/mL and the CFU/mL ([2]; time 0 hr) was 1.8 × 10^9 CFU/mL. The CFU/mL ([2]; time 1.5 hr) was 1.1 × 10^9 CFU/mL, the CFU/mL ([2]; time 5 hr) was 1.3 × 10^7 CFU/mL and the CFU/mL ([2]; time 24 hr) was 1.6 × 10^7 CFU/mL. For the same compound, the CFU/mL ([3]; time 0 hr) was 3.08 × 10^5 CFU/mL, the CFU/mL ([3]; time 1.5 hr) was 2.7 × 10^3 CFU/mL and the CFU/mL ([3]; time 5 hr) was 7.5 × 10^2 CFU/mL. For the same compound, the CFU/mL ([3]; time 24 hr) was 0 CFU/mL, the CFU/mL ([4]; time 0 hr) was 3.5 × 10^5 CFU/mL and the CFU/mL ([4]; time 1.5 hr) was 4.1 × 10^3 CFU/mL. The CFU/mL ([4]; time 5 hr) was 7.2 × 10^2 CFU/mL and the CFU/mL ([4]; time 24 hr) was 0 CFU/mL.

With `O=C(O)c1ccccc1O` [SA, salicylic acid] the “increase in GFP production, induced versus not induced” value (SalAR circuit; 100 μM SA) was “about 1.5 fold”, the “increase in GFP production, induced versus not induced” value (SalAR circuit; 500 μM SA) was ~2 fold and the “effect of supplement alone on viability of mammalian cell lines” value (“effect of supplement alone” for short) [5] was “no adverse effects”. The “effect of supplement alone” value [6] was “did not cause cell death”.

With `CC(=O)Oc1ccccc1C(=O)O` [aspirin, acetylsalicylic acid] the “effect of supplement alone” value [5] was “no adverse effects”.

`Oc1ccccc1O` [catechol, 1,2-dihydroxybenzene] was tested, and the cell viability [7] was “significantly decreased the viability”, the cell viability [8] was “significantly decreased the viability” and the cell viability [9] was “significantly decreased the viability”. For the same compound, the cell viability [10] was “less of an adverse effect”.
